Km data for one compound are collected here from PMC12165992, “Biochemical characterization of lipase from Cryptococcus albidus (D24) and its application in sugar fatty acid ester synthesis” (Archives of Microbiology, 2025).

This experiment relates to T1, D24 lipase.
T1 construct: native extracellular lipase from culture supernatant, only partially purified (dialysed, 10 kDa cut-off concentrated)
Put plainly: spectrophotometric p-nitrophenyl palmitate hydrolysis, Lineweaver-Burk. As to conditions: pH 5.6, 37 °C; partially purified native enzyme, free. The class given is biochemical, Naganishia albida.

Molecules are shown by their SMILES.

As to `CCCCCCCCCCCCCCCC(=O)Oc1ccc([N+](=O)[O-])cc1` [p-nitrophenyl palmitate], the Km was 0.158 µM.

The term Km denotes the substrate concentration at which the rate is half of its maximum.
